The IC50 is the concentration needed to halve the response being measured. What is called Ki is a measure of affinity in units of concentration, obtained from inhibition or displacement. As a reminder, the melting point is the temperature of the solid-liquid transition.

Values joined by “and” are separate entries in the source; they are usually repeats but may differ in a detail not shown here. Identical values can stand only once. Like-named read-outs stand apart in the source and are kept apart here. A value given as a limit tells only on which side of the number the result lay.

The text below walks through data of publication PMC7175131, “Synthesis, In Vitro Evaluation and Molecular Docking of the 5-Acetyl-2-aryl-6-hydroxybenzo[b]furans against Multiple Targets Linked to Type 2 Diabetes” (Biomolecules, 2020).

The target of series [1] is T1, PTP1B (Homo sapiens, UniProt P18031).
T1 construct: purchased Sigma Aldrich, Modderfontein, South Africa
T1 sequence (P18031 1-435): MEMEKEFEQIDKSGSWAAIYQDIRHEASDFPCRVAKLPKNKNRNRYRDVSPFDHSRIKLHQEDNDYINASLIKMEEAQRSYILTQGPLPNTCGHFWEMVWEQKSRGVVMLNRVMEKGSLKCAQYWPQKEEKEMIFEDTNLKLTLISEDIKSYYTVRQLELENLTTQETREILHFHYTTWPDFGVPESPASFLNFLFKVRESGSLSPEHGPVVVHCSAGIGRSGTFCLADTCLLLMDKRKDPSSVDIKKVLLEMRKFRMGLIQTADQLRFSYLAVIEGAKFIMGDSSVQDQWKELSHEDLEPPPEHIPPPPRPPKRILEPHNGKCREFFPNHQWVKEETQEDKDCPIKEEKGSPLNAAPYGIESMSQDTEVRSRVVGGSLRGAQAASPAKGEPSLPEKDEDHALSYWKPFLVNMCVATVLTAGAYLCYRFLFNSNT
In words: PTP1B inhibition assay (pNPP substrate). The series is classed as biochemical. To be noted: Hepes buffer pH 7.0, triplicate. On the procedure: Activity of PTPase (Sigma Aldrich, Modderfontein, South Africa) was evaluated using p-nitrophenylphosphate (PNPP) as the substrate. […] The reaction was stopped by the addition of 30 μL of 3 M NaOH and absorbance was determined at wavelength of 410 nm. Control tubes without the enzyme were ran in parallel to nullify the nonenzymatic reaction and for calculating the concentration of p-nitrophenolate ions produced in the reaction mixture.

Series [2] has as its target T2, human recombinant β-secretase (Homo sapiens, UniProt P56817).
T2 construct: purchased Pan Vera / Thermo Fisher Scientific Corporation; host or cells: baculovirus expression
In words: β-secretase (BACE-1) FRET enzyme assay. The conditions noted are these: for IC50: FRET, sodium acetate pH 4.5, 60 min, triplicate. The class given is biochemical. As for the experimental part: The assays were conducted in triplicates. […] The percentage inhibition was calculated using the following equation: Inhibition (%)=1–(S –S0)/(C –C0) ×100, where C is the fluorescence of control (enzyme, assay buffer and substrate) after 60 min of incubation, C0 is the fluorescence of control at time 0, S is the fluorescence of tested samples (enzyme, sample solution and substrate) after 60 min. of incubation and S0 the fluorescence of the tested samples at time 0. The IC50 values were calculated with Origin Pro 9.0. (OriginLab Corporation).

A short description of series [3]: DPPH radical scavenging assay. The conditions noted are these: DPPH 0.3 mM in methanol, 45 min in the dark, 512 nm. On the procedure:
Antioxidant activities of compounds 2a–h against ascorbic acid (Sigma Aldrich, Saint Louis, Missouri, USA) as a positive control were evaluated using 2,2-diphenyl-1-picrylhydrazyl (DPPH) radical scavenging assay following a reported method by Zhu et al.. Triplicate solutions of the test compounds and the control in methanol (concentrations ranging from 0 µM to 50 µM) were treated with a solution of DPPH (0.3 mM) in methanol. The mixtures were incubated in the dark for 45 min and the absorbances were recorded at the wavelength of 512 nm using Varioskan flash microplate spectrophotometer reader. The inhibition was calculated in terms of percentage using the formula below, DPPH radical scavenged (%)=AbC − AbS/AbC×100, where AbC is absorbance of control and AbS the absorbance of the test sample. A graph of percentage inhibition of free radical activity was plotted against concentration of the sample.
(In general: The DPPH test is a chemical assay of radical scavenging.)

Series [4] addresses T3, α-Glucosidase type 1 from baker's yeast (Saccharomyces cerevisiae, UniProt P53341).
T3 construct: purchased Sigma Aldrich (Pty) Ltd
In words: biochemical. The series is classed as biochemical. On the procedure:
The IC50 values of these compounds were calculated through the nonlinear regression analysis using Origin Pro 9.0 (OriginLab Corporation, Northampton, MA, USA) and are expressed as the mean standard deviation (SD) of three distinct experiments.

In a further series the target is T4, α-glucosidase (Saccharomyces cerevisiae, UniProt P53341).
T4 construct: purchased Sigma Aldrich (Pty) Ltd
T4 sequence (P53341 whole entry): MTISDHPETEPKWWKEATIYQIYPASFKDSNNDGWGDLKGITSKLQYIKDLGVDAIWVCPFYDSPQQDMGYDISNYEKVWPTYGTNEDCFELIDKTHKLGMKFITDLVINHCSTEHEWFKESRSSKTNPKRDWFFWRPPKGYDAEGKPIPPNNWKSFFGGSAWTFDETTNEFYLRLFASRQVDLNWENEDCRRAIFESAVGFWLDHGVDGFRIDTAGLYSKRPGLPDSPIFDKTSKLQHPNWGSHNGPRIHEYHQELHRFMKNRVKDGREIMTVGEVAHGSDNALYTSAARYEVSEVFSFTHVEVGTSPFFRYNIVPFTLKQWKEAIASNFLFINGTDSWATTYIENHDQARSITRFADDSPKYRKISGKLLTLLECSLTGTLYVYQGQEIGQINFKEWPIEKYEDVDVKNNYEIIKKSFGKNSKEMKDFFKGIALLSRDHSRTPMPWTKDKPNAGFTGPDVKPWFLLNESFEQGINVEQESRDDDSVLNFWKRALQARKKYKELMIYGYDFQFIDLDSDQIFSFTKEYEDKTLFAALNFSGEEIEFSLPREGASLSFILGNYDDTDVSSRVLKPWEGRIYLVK
Briefly: Kinetic studies towards α-glucosidase inhibition (Lineweaver-Burk and Dixon plots). The class given is biochemical. The conditions noted are these: for mode of inhibition of α-glucosidase: Lineweaver-Burk and Dixon plots; for Ki: inhibitor 0.5-20 µM, substrate 0–25 µM, read-out: Ki (Dixon plot), α-glucosidase. On the procedure:
The α-glucosidase inhibitory activity of compounds 2a–h was evaluated in triplicates in a 96 well microplate following a protocol by Shi et al.. […] Then 20 µL of 2 mM PNP-G was added and the absorbances were recorded at a wavelength of 405 nm using Varioskan flash microplate spectrophotometer (Thermo Scientific, Waltham, MA, USA). The IC50 values of these compounds were calculated through the nonlinear regression analysis using Origin Pro 9.0 (OriginLab Corporation, Northampton, MA, USA) and are expressed as the mean standard deviation (SD) of three distinct experiments.
The kinetics studies on compounds 2c and 2h were performed according to the reaction conditions in 2.3.1 with inhibitors of various concentrations (0.5, 5, 10, 20 µM) and the ranges of final substrate concentration were 0–25 µM. The type of inhibition was determined by using Lineweave-Burk plot (the inverse of velocity (1/v) against the inverse of the substrate concentration (1/[S]). The inhibitor constant was obtained by Dixon plot (the inverse of velocity (1/v) against concentration of inhibitor at each substrate concentration).

Another series deals with T5, cyclooxygenase-2 (COX-2) (Homo sapiens, UniProt P35354).
T5 sequence (P35354 18-604): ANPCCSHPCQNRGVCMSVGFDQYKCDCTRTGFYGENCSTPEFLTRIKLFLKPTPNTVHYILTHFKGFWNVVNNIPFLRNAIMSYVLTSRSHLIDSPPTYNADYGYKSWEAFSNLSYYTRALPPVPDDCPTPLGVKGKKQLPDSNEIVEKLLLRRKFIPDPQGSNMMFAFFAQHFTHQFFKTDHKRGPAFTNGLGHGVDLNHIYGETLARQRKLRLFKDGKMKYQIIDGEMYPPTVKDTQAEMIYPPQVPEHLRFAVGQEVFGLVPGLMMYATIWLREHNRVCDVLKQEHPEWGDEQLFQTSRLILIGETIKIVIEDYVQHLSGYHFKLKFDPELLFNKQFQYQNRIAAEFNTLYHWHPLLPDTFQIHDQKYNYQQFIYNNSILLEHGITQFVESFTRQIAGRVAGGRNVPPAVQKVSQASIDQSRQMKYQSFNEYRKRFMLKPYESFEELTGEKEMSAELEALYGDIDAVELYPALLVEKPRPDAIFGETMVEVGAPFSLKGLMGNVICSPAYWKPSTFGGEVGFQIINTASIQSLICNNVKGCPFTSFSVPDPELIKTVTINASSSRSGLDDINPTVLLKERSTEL
Briefly: COX-2 inhibitor screening kit assay. To be noted: COX-2 IC50, means from duplicate runs.

In series [5] the target is T1, PTP1B. Briefly: Kinetic studies towards PTP1B inhibition (Lineweaver-Burk and Dixon plots). To be noted: for mode of inhibition of PTP1B: Lineweaver-Burk and Dixon plots; for Ki: inhibitor 0.5-20 µM, substrate 0-25.0 µM, read-out: Ki (Dixon plot), PTP1B. The class given is biochemical. As for the experimental part:
The PTP1B inhibitory activity of compounds 2a–h and sodium orthovanadate was evaluated in triplicates in a 96 well microplate following a protocol by Goldstein et al.. Activity of PTPase (Sigma Aldrich, Modderfontein, South Africa) was evaluated using p-nitrophenylphosphate (PNPP) as the substrate. A 10 μL of PTP1B solution (0.02 U/mL) in 50 mM Hepes buffer (pH 7.0) with different concentrations (0.5, 10, 25, 50, 100 μM) of the test compounds and the reference standard were incubated at 25 °C for 10 min. After pre-incubation, 25 μL of HEPES buffer and 25 μL of 2 mM (pNPP) were added and the mixtures were incubated at 37 °C for 30 min. The reaction was stopped by the addition of 30 μL of 3 M NaOH and absorbance was determined at wavelength of 410 nm. Control tubes without the enzyme were ran in parallel to nullify the nonenzymatic reaction and for calculating the concentration of p-nitrophenolate ions produced in the reaction mixture. A molar extinction coefficient of 1.78 ×10^4 M^-1 cm^-1 was used to calculate the concentration of p-nitrophenolate ions produced in the reaction mixture.
Compounds 2c and 2h were subjected to kinetic analysis following the procedure outlined in 2.3.2 with inhibitors of various concentrations (0.5, 5, 10, 20 µM). The assay was performed with substrate of various concentrations (0, 2.5, 6.25, 12.5, 25.0 µM). The absorbance due to the p-nitrophenol produced by dephosphorylation of PTP1B was measured at 405 nm. The kinetic parameters were determined using Lineweaver-Burk double-reciprocal plots and the Dixon the Dixon plot method at increasing substrate and compound concentrations.

The mark [6] stands for this setting: yeast enzyme, PNP-G substrate, pH 6.8, 37 °C, mean ± SD, triplicate, read-out: IC50 α-Glucosidase.

T2 sequence (P56817 46-501): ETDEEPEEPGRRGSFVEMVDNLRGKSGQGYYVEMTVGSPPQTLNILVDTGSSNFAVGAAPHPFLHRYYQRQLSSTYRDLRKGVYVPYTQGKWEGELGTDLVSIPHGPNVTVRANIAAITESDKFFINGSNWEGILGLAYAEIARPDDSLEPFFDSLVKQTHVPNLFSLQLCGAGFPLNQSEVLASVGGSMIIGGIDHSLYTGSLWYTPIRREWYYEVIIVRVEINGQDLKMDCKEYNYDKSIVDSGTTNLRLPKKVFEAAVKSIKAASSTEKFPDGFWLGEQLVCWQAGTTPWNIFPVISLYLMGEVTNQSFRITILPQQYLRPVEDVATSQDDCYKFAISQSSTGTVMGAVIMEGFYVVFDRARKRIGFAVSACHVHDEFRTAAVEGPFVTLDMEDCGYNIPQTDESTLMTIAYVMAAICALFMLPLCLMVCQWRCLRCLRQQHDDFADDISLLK
T3 sequence (P53341 whole entry): as the sequence (P53341 whole entry) above
Procedure for cyclooxygenase-2 (COX-2): The absorbance was measured using a Varioskan flash microplate spectrophotometer and the IC50 values were calculated with the aid of Origin Pro 9.0.

With `CC(=O)c1cc2cc(-c3ccccc3)oc2cc1O` [Compound 2a, 1-[6-Hydroxy-2-phenylbenzofuran-5-yl]ethanone], the IC50 against PTP1B [1] was 23 ± 0.23 µM; in series [2], 63.15 ± 0.07 µM; in series [3], 12.2 ± 2.1 µM; in series [4] it was above 100 µM. In addition, the “activity against α-glucosidase (in words)” value in series [4] (tested 0–100 μM) is “No activity”.

With `O=C1O[C@H]([C@@H](O)CO)C(O)=C1O` [Ascorbic acid, ascorbic acid, reference compound], the IC50 in series [3] was 10.7 ± 0.42 µM.

As to `CC(=O)c1cc2cc(-c3ccc(F)cc3)oc2cc1O` [Compound 2c, 1-[2-(4-Fluorophenyl)-6-hydroxybenzofuran-5-yl]ethanone], the IC50 against PTP1B [1] is 17.8 µM; in series [2], above 100 µM; in series [3], 9.8 µM and 9.82 µM; in series [4] (setting [6]), 0.11 ± 0.04 µM; against cyclooxygenase-2 (COX-2), 2800 nM and 2810 nM. The “mode of inhibition of α-glucosidase” value at α-glucosidase is recorded as “non-competitive”. For the same molecule, the inhibitory constant (Ki) on α-glucosidase turned out to be 15.09 ± 0.03 µM; at PTP1B [5], 5200 ± 100 nM. On PTP1B [5], the “mode of inhibition of PTP1B” value is “mixed-type”.

As to `COc1cc(OC)cc(-c2cc3cc(C(C)=O)c(O)cc3o2)c1` [Compound 2h, 1-[6-Hydroxy-2-(3,5-dimethoxyphenyl)benzofuran-5-yl]ethanone], the melting point lay within 155 to 156 °C. Also, the IC50 against PTP1B [1] is 11.9 ± 0.35 µM. In addition, at α-glucosidase, the “mode of inhibition of α-glucosidase” value was “mixed mode” and the Ki worked out at 5.11 ± 0.42 µM. At α-glucosidase (unchanged with inhibitor concentration), the “Vmax, α-glucosidase in presence of inhibitor” value is reported as 0.19. The half-maximal inhibitory concentration (IC50) in series [2] amounted to 25.8 ± 0.08 µM. This molecule registered a 50% inhibitory concentration (IC50) in series [3] of 6.28 ± 0.33 µM. Besides, the IC50 in series [4] (setting [6]) was 0.78 ± 0.31 µM. The molecule further displayed a 50% inhibitory concentration (IC50) against cyclooxygenase-2 (COX-2) of 99600 ± 2600 nM. Besides, on PTP1B [5], the “mode of inhibition of PTP1B” value was “non-competitive” and the inhibition constant (Ki) stood at 490 ± 10 nM.

`CC(=O)c1cc2cc(-c3ccc(Cl)cc3)oc2cc1O` [Compound 2e, 1-[2-(4-Chlorophenyl)-6-hydroxybenzofuran-5-yl]ethanone] returned a melting point of 170 to 173 °C. The molecule also returned an IC50 against PTP1B [1] of 21.5 µM. Further, in series [2], the 50% inhibitory concentration (IC50) was above 100 µM. In series [3], the IC50 turned out to be 11.3 ± 1.2 µM. Further, inhibition in series [4] was half-maximal at 64.9 ± 0.05 µM (IC50).

Consider `CC(=O)c1cc2cc(-c3cccc(F)c3)oc2cc1O` [Compound 2b, 1-[2-(3-Fluorophenyl)-6-hydroxybenzofuran-5-yl]ethanone], for which the IC50 against PTP1B [1] is 24.5 ± 0.29 µM; in series [2] it was above 100 µM; in series [3], 46.5 ± 0.24 µM; in series [4] (setting [6]), 4.65 ± 0.13 µM.

In the case of `CC(=O)c1cc2cc(-c3ccc(C)cc3)oc2cc1O` [Compound 2f, 1-[6-Hydroxy-2-(4-tolyl)benzofuran-5-yl]ethanone], the melting point lay within 169 to 172 °C. On PTP1B [1], this molecule registered an IC50 of 26.7 µM. In addition, in series [2], the “activity against β-secretase (in words)” value is “inactive” and the 50% inhibitory concentration (IC50) is above 100 µM. The same molecule came in with a half-maximal inhibitory concentration (IC50) in series [3] of 26.7 ± 0.62 µM. Further, the IC50 in series [4] was 14.05 ± 0.07 µM.

With `CC(=O)c1cc2cc(-c3cccc(Cl)c3)oc2cc1O` [Compound 2d, 1-[2-(3-Chlorophenyl)-6-hydroxybenzofuran-5-yl]ethanone], the 50% inhibitory concentration (IC50) was 29.3 µM against PTP1B [1], above 100 µM in series [2], 15.5 ± 0.21 µM in series [3] and above 100 µM in series [4] (setting [6]).

With `COc1ccc(-c2cc3cc(C(C)=O)c(O)cc3o2)cc1` [Compound 2g, 1-[6-Hydroxy-2-(4-methoxyphenyl)benzofuran-5-yl]ethanone], the IC50 was 31.9 µM against PTP1B [1]; 27.3 ± 1.1 µM in series [2]; 16.8 ± 0.38 µM in series [3]; 0.56 ± 0.24 µM in series [4] (setting [6]); 2300 nM and 2330 nM against cyclooxygenase-2 (COX-2).
